Laboratory results taken from PubChem BioAssay (NCI).
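A five-concentration, 48-hour dose response in 96-well plates underlies each endpoint, interpolated linearly between surrounding concentrations. TGI: concentration producing complete growth inhibition.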

What was measured:
Assay in all cases: NCI tumour cell line growth inhibition, 48 h
SK-OV-3 ovarian = system: SK-OV-3 ovarian
A498 renal = system: A498 renal
COLO 205 colon = system: COLO 205 colon
CCRF-CEM leukemia = system: CCRF-CEM leukemia
NCI-H522 lung = system: NCI-H522 lung
OVCAR-4 ovarian = system: OVCAR-4 ovarian
SN12C renal = system: SN12C renal
SR leukemia = system: SR leukemia
NCI/ADR-RES ovarian = system: NCI/ADR-RES ovarian
MALME-3M melanoma = system: MALME-3M melanoma
A549 NSCLC = system: A549 NSCLC
EKVX NSCLC = system: EKVX NSCLC
SF-295 CNS = system: SF-295 CNS
HCT-116 colon = system: HCT-116 colon
HS 578T breast = system: HS 578T breast
PC-3 prostate = system: PC-3 prostate
MDA-N = system: MDA-N
NCI-H460 lung = system: NCI-H460 lung
UACC-62 melanoma = system: UACC-62 melanoma

SMILES | TGI (SK-OV-3 ovarian) [µM] | TGI (A498 renal) [µM] | TGI (COLO 205 colon) [µM] | TGI (CCRF-CEM leukemia) [µM] | TGI (NCI-H522 lung) [µM] | TGI (OVCAR-4 ovarian) [µM] | TGI (SN12C renal) [µM] | TGI (SR leukemia) [µM] | TGI (NCI/ADR-RES ovarian) [µM] | TGI (MALME-3M melanoma) [µM] | TGI (A549 NSCLC) [µM] | TGI (EKVX NSCLC) [µM] | TGI (SF-295 CNS) [µM] | TGI (HCT-116 colon) [µM] | TGI (HS 578T breast) [µM] | TGI (PC-3 prostate) [µM] | TGI (MDA-N) [µM] | TGI (NCI-H460 lung) [µM] | TGI (UACC-62 melanoma) [µM]
Cc1ccc2nc(-c3ccc(-n4c(C)nc(=O)c(-c5ccc(F)cc5)c4C)cc3)sc2c1 | 29.3 | 32.9 | 20.5 | 32.7 | 35.2 | 56.6 | 33.8 | 29.5 | 35 | 32.5 | 35.6 | 30 | 33.1 | 29.4 | 96.9 | 25.1 | 32.2 | – | –
Cc1ccc(/C(=C\C(=O)C(=O)NC23CC4CC(CC(C4)C2)C3)Sc2ccccc2)cc1 | > 10 | > 10 | > 10 | > 10 | > 10 | > 10 | > 10 | > 10 | > 10 | > 10 | – | > 10 | > 10 | – | > 10 | > 10 | > 10 | > 10 | –
CC(=O)OC[C@@H]1[C@H]2CC[C@]3(C)[C@@H](OC(C)=O)CC[C@H]3[C@@H]2CC[C@H]1C1(C)SCCS1 | – | > 25 | > 25 | > 25 | > 25 | > 25 | > 25 | > 25 | > 25 | > 25 | > 25 | > 25 | > 25 | > 25 | > 25 | > 25 | > 25 | > 25 | –
CCOC(=O)CC1(O)CCCCC1(Sc1ccc(C)cc1)Sc1ccc(C)cc1 (stereo not drawn) | > 100 | > 100 | > 100 | > 100 | 51 | > 100 | > 100 | > 100 | > 100 | 91.8 | > 100 | > 100 | > 100 | > 100 | 84.4 | > 100 | > 100 | > 100 | > 100
O1C2C1C1OC1C1OC1C1OC21 (stereo not drawn) | > 100 | > 100 | > 100 | > 100 | > 100 | > 100 | > 100 | > 100 | > 100 | > 100 | > 100 | > 100 | > 100 | > 100 | > 100 | > 100 | > 100 | – | > 100
CCC1(CCSC(=N)N)C(=O)NC(=O)NC1=O | > 100 | > 100 | > 100 | > 100 | > 100 | > 100 | > 100 | > 100 | > 100 | > 100 | > 100 | > 100 | > 100 | > 100 | > 100 | > 100 | > 100 | > 100 | > 100
COC(=O)Nc1nc2ccc(S(=O)(=O)n3nnc4ccccc43)cc2[nH]1 | 41.2 | > 100 | > 100 | > 100 | > 100 | > 100 | > 100 | > 100 | > 100 | > 100 | > 100 | > 100 | 90.7 | > 100 | > 100 | > 100 | > 100 | > 100 | > 100
CCOC(=O)[C@H](O)[C@@H](O)C(=O)NCc1ccc(C(=O)c2ccccc2)cc1 | > 100 | > 100 | > 100 | > 100 | > 100 | > 100 | > 100 | > 100 | > 100 | > 100 | > 100 | > 100 | > 100 | > 100 | > 100 | > 100 | > 100 | > 100 | > 100
CCOC(=O)C1=C(C)OC(=O)[C@@]2(OC)C=C(Cl)[C@@]12C | > 100 | > 100 | > 100 | > 100 | > 100 | > 100 | > 100 | > 100 | > 100 | > 100 | > 100 | > 100 | > 100 | > 100 | > 100 | > 100 | > 100 | > 100 | > 100
CSC1=NC(C(N)=O)C(N)N1C (stereo not drawn) | > 100 | > 100 | > 100 | > 100 | > 100 | > 100 | > 100 | > 100 | > 100 | > 100 | > 100 | > 100 | > 100 | > 100 | > 100 | > 100 | > 100 | > 100 | > 100
CN(C)c1nc2n(CCO)c(-c3ccccc3)c(-c3ccccc3)nc-2c(=O)n1 | > 100 | > 100 | > 100 | > 100 | > 100 | > 100 | > 100 | > 100 | > 100 | > 100 | > 100 | > 100 | > 100 | > 100 | > 100 | > 100 | > 100 | > 100 | > 100
O=c1oc2nc(-c3ccccc3)cc(C(F)(F)F)c2n1Cc1ccccc1 | > 100 | 9.48 | > 100 | > 26.1 | > 100 | > 100 | > 100 | > 100 | > 60.4 | 98.5 | > 100 | > 100 | > 100 | > 100 | > 75.3 | > 100 | 2.68 | > 100 | > 100
Fc1ccc(OCc2nc3cc(C(F)(F)F)ccc3nc2-c2ccccc2)cc1 | – | > 100 | > 100 | > 93.1 | > 100 | > 100 | > 100 | > 100 | > 100 | > 100 | > 100 | > 100 | > 100 | > 100 | > 100 | > 100 | > 100 | > 100 | > 100
O=C(O)C1=C(C(=O)O)N(c2ccncc2)C(c2ccco2)=CC1c1ccccc1[N+](=O)[O-] (stereo not drawn) | 44.1 | 28.1 | 31.1 | > 23.8 | 9.59 | 25.9 | 29.1 | 5.68 | > 69.9 | 22.3 | 35.9 | 26.6 | 25.5 | 3.4 | 62 | 27.9 | 20.7 | 28.9 | 32.1
O=C(CC(C(=O)c1ccco1)c1cccs1)c1cccs1 (stereo not drawn) | > 100 | > 100 | > 100 | – | > 100 | > 100 | > 100 | > 100 | > 100 | > 100 | > 100 | 97.8 | > 100 | > 100 | > 100 | > 100 | > 100 | > 100 | > 100
O=C1c2ccccc2C(=O)c2c1ccc1nc3c(nc21)-c1c2ccccc2cc2cccc-3c12 | > 100 | > 82.5 | > 100 | > 100 | > 100 | > 100 | > 100 | > 100 | > 100 | > 100 | > 100 | > 100 | > 100 | > 100 | > 52.4 | > 100 | > 100 | > 100 | > 86.2
Cc1cccc2c(N)c3cccc(C(=O)NCC[N+](C)(C)Cc4sccc4[N+](=O)[O-])c3nc12 | 41.3 | > 100 | 79.3 | > 100 | 29.1 | 35.5 | > 100 | > 100 | > 100 | 27.7 | 16.9 | > 100 | > 100 | 96.8 | 28.3 | 77 | 80.2 | – | 36
Cn1cc(-c2cnc(-c3cn(C)c4ccccc34)cn2)c2ccccc21 | > 100 | > 41.4 | 15.6 | 3.58 | 15.4 | > 100 | > 100 | > 100 | 40.7 | > 100 | > 100 | > 100 | 11.7 | > 100 | 33.5 | > 100 | 3.54 | > 100 | 31.3
O=C1C(c2c(O)[nH]c3ccc(S(=O)(=O)O)cc23)=Nc2ccc(Br)cc21 | > 100 | > 100 | > 100 | > 100 | > 100 | > 100 | > 100 | > 100 | > 100 | > 100 | > 100 | > 100 | > 100 | > 100 | > 100 | > 100 | > 100 | > 100 | > 100
C=C1CCCCCCCCCCC12SCCC2CCCCSC (stereo not drawn) | > 100 | 35.8 | 33.6 | – | 36.8 | > 100 | 53.9 | 53.4 | 46.2 | 36.2 | > 100 | 86.4 | 38.3 | 33.9 | > 100 | 56.1 | > 100 | > 100 | 76
